# System: Clostridium acetobutylicum strain ATCC 824
# Assay: Sequential batch transfer in 24-well culture plates (butanol, residual glucose, butanol yield and productivity)
# Assay type: cell-based
# Details: for Residual glucose concentration: initial glucose 60 g/L
# Description: Each well contained 1.5 mL of growth medium. Peptide was added to each well at the indicated concentration (0, 25, 50, and 100 nM). Every 24 hours fresh medium and peptide treatment were added to a new column of wells then 1.5 μL of the previous day culture was transferred to the new well. Wells were harvested for glucose and butanol analysis after 96 hours of growth. Transfers 1, 4, 7, 10, 13, 16, […].
# Briefly, Clostridium spores were germinated in a suitable growth medium for 18-24 hours then […] was transferred to 1.5 mL of fresh medium in each of four wells on a 24-well culture plate. Three of the wells had been treated with 25 nM, 50 nM and 100 nM of peptide, respectively while the fourth well was untreated. Thereafter, every 24 hours […] of each subculture was transferred to 1.5 mL of fresh medium that contained the same peptide treatment or no treatment. Transfers of successive subcultures were done for 24 days, and each subculture was grown for 96 hours before being harvested. Culture supernatants were recovered following centrifugation and were analyzed for butanol and residual glucose concentrations. Determination of optimum peptide treatment levels was based on a graphical comparison of the concentration of butanol in each of the four culture wells for sequential transfers 1, 4, 7, 10, 13, 16, 19, 22 and 24.
# Clostridium acetobutylicum strain ATCC 824 was used in all experiments and the growth medium used for sequential batch transfer, time course, and continuous culture experiments contained yeast extract, casamino acids, L-cysteine, L-asparagine, phosphate buffer, trace minerals, and 6% glucose. What are believed to be quorum-sensing peptides that were used in the experiments were chemically synthesized peptides SEQ ID NO: 143 (amino acid sequence: SYPGWSW) and SEQ ID NO: 144 (amino acid sequence: ILILISG). Routine growth of the bacteria as well as the sequential batch and time course experiments were conducted in a Form a Scientific Model 1029 anaerobic gas chamber at 32° C. Continuous cultures were performed at 32° C. using duplicate New Brunswick Scientific BioFlo 3000 apparati with a dilution rate of 0.01 volume per hour, 75 rpm agitation, and nitrogen gas sparging. Optical density of culture samples was measured at 600 nm in a Beckman DU 600 series spectrophotometer and glucose was analyzed using a YSI Model 2700 Select Biochemistry Analyzer with internal glucose calibration. Butanol concentrations were determined by measuring experimental and standard samples using a Varian Saturn 3 Gas Chromatograph/Mass Spectrometer and calculating butanol concentrations using standard curves.
# (§1) Sequential batch transfer experiments were carried out in 24-well culture plates that contained 1.5 mL of medium per well. Peptide was added to each well at the indicated concentrations of 0 nM (control), 25 nM, 50 nM, or 100 nM. Every 24 hours, fresh medium and peptide treatments were added to a new column of wells. Then, 1.5 uL of the previous day culture was transferred to the new well. Wells were harvested for glucose and butanol analysis after 96 hours of growth; transfers 1, 4, 7, 10, 13, 16, 19, 22, and 24 were analyzed. Two representative experiments are shown in Tables 30 and 31 and FIGS. 14 and 15.
# as §1, with “32” for “30”, “33” for “31”, “16” for “14”, “17.” for “15.”
# [1] = 50 nM peptide, transfer 19, after 96 hours of culture, Expt. 1
# [2] = 50 nM peptide, transfer 22, after 96 hours of culture, Expt. 1
# [3] = 50 nM peptide, transfer 24, after 96 hours of culture, Expt. 1
# [4] = 100 nM peptide, transfer 1, after 96 hours of culture, Expt. 1
# [5] = 100 nM peptide, transfer 4, after 96 hours of culture, Expt. 1
# [6] = 100 nM peptide, transfer 7, after 96 hours of culture, Expt. 1
# [7] = 100 nM peptide, transfer 10, after 96 hours of culture, Expt. 1
# [8] = 100 nM peptide, transfer 13, after 96 hours of culture, Expt. 1
# [9] = 100 nM peptide, transfer 16, after 96 hours of culture, Expt. 1
# [10] = 100 nM peptide, transfer 19, after 96 hours of culture, Expt. 1
# [11] = 100 nM peptide, transfer 22, after 96 hours of culture, Expt. 1
# [12] = 100 nM peptide, transfer 24, after 96 hours of culture, Expt. 1
# [13] = BP1106213 first experiment, 25 nM, transfer 10
substance,measurement,setting,value
ILILISG (Derived from Clostridium acetobutylicum SEQ ID NO: 110) [peptide SEQ ID NO: 144],Butanol concentration,[1],8.40 g/L
same,Butanol productivity,[1],0.09 g butanol/L-h
same,Butanol yield,[1],0.14 g butanol/g/glucose
same,Butanol concentration,"50 nM peptide, transfer 19, after 96 hours of culture, Expt. 2 (repeat), Table 58",4.66 g/L
same,Residual glucose concentration,[1],0.0 g/L
same,Residual glucose concentration,"50 nM peptide, transfer 19, after 96 hours of culture, Expt. 2 (repeat), Table 45",49.2 g/L
same,Butanol concentration,[2],14.14 g/L
same,Butanol productivity,[2],0.15 g butanol/L-h
same,Butanol yield,[2],0.23 g butanol/g/glucose
same,Butanol concentration,"50 nM peptide, transfer 22, after 96 hours of culture, Expt. 2 (repeat), Table 58",4.22 g/L
same,Residual glucose concentration,[2],12.6 g/L
same,Residual glucose concentration,"50 nM peptide, transfer 22, after 96 hours of culture, Expt. 2 (repeat), Table 45",40.2 g/L
same,Butanol concentration,[3],6.90 g/L
same,Butanol productivity,[3],0.07 g butanol/L-h
same,Butanol yield,[3],0.11 g butanol/g/glucose
same,Butanol concentration,"50 nM peptide, transfer 24, after 96 hours of culture, Expt. 2 (repeat), Table 58",1.87 g/L
same,Residual glucose concentration,[3],43.2 g/L
same,Residual glucose concentration,"50 nM peptide, transfer 24, after 96 hours of culture, Expt. 2 (repeat), Table 45",0.0 g/L
same,Butanol concentration,[4],1.78 g/L
same,Butanol productivity,[4],0.02 g butanol/L-h
same,Butanol yield,[4],0.03 g butanol/g/glucose
same,Butanol concentration,"100 nM peptide, transfer 1, after 96 hours of culture, Expt. 2 (repeat), Table 58",1.19 g/L
same,Residual glucose concentration,[4],48.5 g/L
same,Residual glucose concentration,"100 nM peptide, transfer 1, after 96 hours of culture, Expt. 2 (repeat), Table 45",55.8 g/L
same,Butanol concentration,[5],7.17 g/L
same,Butanol productivity,[5],0.07 g butanol/L-h
same,Butanol yield,[5],0.12 g butanol/g/glucose
same,Butanol concentration,"100 nM peptide, transfer 4, after 96 hours of culture, Expt. 2 (repeat), Table 58",2.12 g/L
same,Residual glucose concentration,[5],0.0 g/L
same,Residual glucose concentration,"100 nM peptide, transfer 4, after 96 hours of culture, Expt. 2 (repeat), Table 45",49.9 g/L
same,Butanol concentration,[6],5.62 g/L
same,Butanol productivity,[6],0.06 g butanol/L-h
same,Butanol yield,[6],0.09 g butanol/g/glucose
same,Butanol concentration,"100 nM peptide, transfer 7, after 96 hours of culture, Expt. 2 (repeat), Table 58",2.11 g/L
same,Residual glucose concentration,[6],0.0 g/L
same,Residual glucose concentration,"100 nM peptide, transfer 7, after 96 hours of culture, Expt. 2 (repeat), Table 45",49.4 g/L
same,Butanol concentration,[7],7.91 g/L
same,Butanol productivity,[7],0.08 g butanol/L-h
same,Butanol yield,[7],0.13 g butanol/g/glucose
same,Butanol concentration,"100 nM peptide, transfer 10, after 96 hours of culture, Expt. 2 (repeat), Table 58",2.07 g/L
same,Residual glucose concentration,[7],0.1 g/L
same,Residual glucose concentration,"100 nM peptide, transfer 10, after 96 hours of culture, Expt. 2 (repeat), Table 45",51.2 g/L
same,Butanol concentration,[8],6.37 g/L
same,Butanol productivity,[8],0.07 g butanol/L-h
same,Butanol yield,[8],0.11 g butanol/g/glucose
same,Butanol concentration,"100 nM peptide, transfer 13, after 96 hours of culture, Expt. 2 (repeat), Table 58",1.54 g/L
same,Residual glucose concentration,[8],0.1 g/L
same,Residual glucose concentration,"100 nM peptide, transfer 13, after 96 hours of culture, Expt. 2 (repeat), Table 45",49.7 g/L
same,Butanol concentration,[9],7.11 g/L
same,Butanol productivity,[9],0.07 g butanol/L-h
same,Butanol yield,[9],0.12 g butanol/g/glucose
same,Butanol concentration,"100 nM peptide, transfer 16, after 96 hours of culture, Expt. 2 (repeat), Table 58",5.68 g/L
same,Residual glucose concentration,[9],0.1 g/L
same,Residual glucose concentration,"100 nM peptide, transfer 16, after 96 hours of culture, Expt. 2 (repeat), Table 45",0.0 g/L
same,Butanol concentration,[10],5.55 g/L
same,Butanol productivity,[10],0.06 g butanol/L-h
same,Butanol yield,[10],0.09 g butanol/g/glucose
same,Butanol concentration,"100 nM peptide, transfer 19, after 96 hours of culture, Expt. 2 (repeat), Table 58",2.61 g/L
same,Residual glucose concentration,[10],0.0 g/L
same,Residual glucose concentration,"100 nM peptide, transfer 19, after 96 hours of culture, Expt. 2 (repeat), Table 45",0.0 g/L
same,Butanol concentration,[11],13.86 g/L
same,Butanol productivity,[11],0.14 g butanol/L-h
same,Butanol yield,[11],0.23 g butanol/g/glucose
same,Butanol concentration,"100 nM peptide, transfer 22, after 96 hours of culture, Expt. 2 (repeat), Table 58",3.41 g/L
same,Residual glucose concentration,[11],0.6 g/L
same,Residual glucose concentration,"100 nM peptide, transfer 22, after 96 hours of culture, Expt. 2 (repeat), Table 45",0.1 g/L
same,Butanol concentration,[12],7.20 g/L
same,Butanol productivity,[12],0.07 g butanol/L-h
same,Butanol yield,[12],0.12 g butanol/g/glucose
same,Butanol concentration,"100 nM peptide, transfer 24, after 96 hours of culture, Expt. 2 (repeat), Table 58",3.29 g/L
same,Residual glucose concentration,[12],0.1 g/L
same,Residual glucose concentration,"100 nM peptide, transfer 24, after 96 hours of culture, Expt. 2 (repeat), Table 45",0.1 g/L
same,Increase in butanol yield,"BP1106213, batch cultures (summary of findings)",more than 50%
same,Transfers over which butanol production was enhanced,"BP1106213, sequential batch cultures (summary of findings)",transfer 4 through transfer 16
same,Butanol productivity,[13],0.12 g butanol/1-hour
same,Butanol yield,[13],0.20 g butanol/g glucose
same,Butanol yield and productivity greater than untreated control,[13],more than 50%
same,Effect on butanol production versus untreated control,"BP1106213 first experiment, 100 nM","generally resulted in decreased butanol production, or no difference from the untreated control"
same,Glucose consumption,"BP1106213 first experiment, all treated and untreated cultures, transfer 4 through transfer 19",~100%
same,Effect on butanol production versus untreated control,"BP1106213 repeated (second) experiment, on the whole",inhibit butanol production
same,Increase in butanol over untreated control,"SEQ ID NO: 144 first experiment, 25 nM, transfer 4",31%
same,Increase in butanol over untreated control,"SEQ ID NO: 144 first experiment, 25 nM, transfer 10",57%
same,Increase in butanol over untreated control,"SEQ ID NO: 144 first experiment, 25 nM, transfer 16",21%
same,Increase in butanol over untreated control,"SEQ ID NO: 144 first experiment, 50 nM, transfer 4",25%
same,Increase in butanol over untreated control,"SEQ ID NO: 144 first experiment, 50 nM, transfer 10",46%
same,Increase in butanol over untreated control,"SEQ ID NO: 144 first experiment, 50 nM, transfer 16",35%
same,Increase in butanol over untreated control,"SEQ ID NO: 144 second experiment, 25 nM, transfer 13",283%
same,Increase in butanol over untreated control,"SEQ ID NO: 144 second experiment, 25 nM, transfer 16",10%
same,Increase in butanol over untreated control,"SEQ ID NO: 144 second experiment, 50 nM, transfer 13",85%
same,Effect on differentiation and butanol production,some sequential cultures,inducer of differentiation and butanol production
